The text below walks through data of US9879243B2, “Culture medium for cell growth and transfection” (LIFE TECHNOLOGIES CORPORATION, priority 2001, dated 2018).

One assay has as its system CHO cells. The experiment in a line: Effect of replacement compounds on the growth of CHO cells in CD CHO medium without transferrin, three passages. In kind it is cell-based, Chinese hamster. To be noted: third passage. The method, boiled down: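 CHO cells seeded at 1×10^5 viable cells/mL in transferrin-free CD CHO medium, 37 °C, 8% CO2, subcultured every 4 days for three passages. Compounds tested alone or complexed with ferric chloride or ferrous sulfate at 25, 50 and 100 μM; growth as mean percentage of the 5 μg/mL holo-transferrin control at the third passage, duplicate cultures.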

The next assay deals with Sp2/0 cells. The experiment in a line: Effect of replacement compounds on the growth of Sp2/0 cells in CD Hybridoma medium without transferrin, three passages. As to conditions: third passage. In kind it is cell-based.
The test system of assay [1] is 293 cells. The experiment in a line: β-galactosidase expression after transfection (pCMV-SPORT-β-gal, LIPOFECTAMINE 2000) of 293 cells in monolayer culture, 24-well plates. The class given is cell-based, human. To be noted: Table 8, replacement compounds 25 μM in test media, 24 hrs post-transfection. As for the experimental part:
When cultured in suspension, cells were split to 3×10^5 viable cells per ml at each passage. On the week of transfection cells were seeded at 3×10^5 viable cells per ml. After ˜48 hrs of growth (day 2) cells were vortexed for 30 seconds and counted and appropriate volumes used for transfection as described in procedures below.
In addition, the base media comprises 2.4 g/L NaHCO3, 2.98 g/L Hepes, 4 mM L-glutamine and 3 ml/L PLURONIC F-68 (Invitrogen Corp., Carlsbad, Calif.).
The osmolarity is adjusted to from about 275-310 mOsm, preferably about 280 mOsm and the pH is adjusted to from about 7.0 to about 7.45 preferably about 7.4 respectively.
Three wells were set up for each treatment. A volume of media corresponding to 3×10^6 viable cells was centrifuged. The supernatant was removed and the cells re-suspended in 600 μl test media. Each well of a 24 well plate received 200 μl of the re-suspended cells.
To prepare the nucleic acid for the transfection experiments, 93 μl test media+3 μl DNA+24 μl LIPOFECTAMINE 2000 were combined in a microfuge tube and complexed for 30 minutes. A 40 μl aliquot of complex was added to each well. 250 μl test media was added to each well five hours after addition of complex. The final cell concentration was 1×10^6 viable cells per well; the final DNA concentration was 1 μg per 1×10^6 viable cells and the final LIPOFECTAMINE 2000 concentration was 8 μl per 1×10^6 viable cells.
24 hrs post-transfection, samples were collected for β-galactosidase quantitation. The contents of duplicate wells were pooled (i.e. ˜2×10^6 cells for the assay) for each sample and transferred to a microfuge tube. The cells were centrifuged, the supernatant was removed and the cells were re-suspended in 1 ml of D-PBS. The cells were pelleted a second time and re-suspended in 1 ml of D-PBS. The samples were then stored at −70° C. Prior to the assay for β-galactosidase, samples were freeze-thawed a total of five times.
293 cells were grown in monolayer culture in the presence of the various replacement compounds indicated and transfection experiments performed as described above. The results are shown in Table 8 and the values are β-galactosidase activity expressed as nanograms of β-galactosidase per 2×10^6 cells. A comparison was made between the transfection efficiency of DNA complexes formed in D-MEM medium and DNA complexes formed in test medium. […]
For cells transfected in 24-well plates, cells densities used were 1×10^6 viable cells per well.

For assay [2], the system named is 293 cells. The experiment in a line: Growth and adaptation of 293 cells to test media before transfection. To be noted: for support of growth at the ZnSO4 concentrations tested: Example 7, ethyl maltol 50 μM, 2-hydroxypyridine 25 μM, DPTA.FeSO4 50 μM, ZnSO4 0.5×-5×. The class given is cell-based, human.
Method: 293 cells were grown in monolayer culture in base medium supplemented with the indicated replacement compounds at the concentrations specified in Table 9.
Setting [3] is: 25 μM, control 5 μg/mL human holo-transferrin.

On to `CCc1occc(=O)c1O` [2-Ethyl-3-Hydroxy-4-Pyrone], for which the “mean percentage of control growth” value in the assay on CHO cells (setting [3]) is on record as 9 percentage of control growth; in the assay with CHO cells (50 μM), 60 percentage of control growth; in the assay on CHO cells (100 μM), 113 percentage of control growth; in the assay on Sp2/0 cells (setting [3]), 0 percentage of control growth; with Sp2/0 cells (50 μM) it was 75 percentage of control growth; in the assay on Sp2/0 cells (100 μM), 116 percentage of control growth. Also, the “β-galactosidase activity; D-MEM used for complexing, Test media to re-suspend cells” value with 293 cells [1] was 378 nanograms of β-galactosidase per 2×10^6 cells. Besides, the “β-galactosidase activity; Test Media used for complexing and to re-suspend cells” value in the assay on 293 cells [1] is on record as 1827 nanograms of β-galactosidase per 2×10^6 cells. In the assay with 293 cells [2] (Example 6, 100 μM), the support of growth result is listed as “did not support growth”. In addition, the “support of growth at the ZnSO4 concentrations tested” value with 293 cells [2] is “supported growth at all concentrations of ZnSO4 tested”.

With “Diethylenetriamine Penta-Acetic Acid•Ferrous Sulfate”, the “mean percentage of control growth” value in the assay with CHO cells (setting [3]) is recorded as 135 percentage of control growth; in the assay with CHO cells (50 μM) it was 137 percentage of control growth; with CHO cells (100 μM) it was 147 percentage of control growth; with Sp2/0 cells (setting [3]), 54 percentage of control growth; in the assay with Sp2/0 cells (50 μM), 90 percentage of control growth; in the assay with Sp2/0 cells (100 μM), 91 percentage of control growth. Further, the “β-galactosidase activity; D-MEM used for complexing, Test media to re-suspend cells” value with 293 cells [1] was 234 nanograms of β-galactosidase per 2×10^6 cells. Besides, the “β-galactosidase activity; Test Media used for complexing and to re-suspend cells” value in the assay with 293 cells [1] was 720 nanograms of β-galactosidase per 2×10^6 cells. In addition, the “growth in the presence of ZnSO4” value with 293 cells [2] (Example 6, in combination with ZnSO4 instead of insulin) is on record as “acceptable”. In addition, in the assay with 293 cells [2], the “support of growth at the ZnSO4 concentrations tested” value was “supported growth at concentrations of 1×, 2× and 5× ZnSO4, but not at 0.5×”.
